pIC50: −log10 of the molar value.
What was measured:
[1] = system: LN229 (glioma), 1205Lu (melanoma), HT-29 (colon) and c8161 (melanoma) cells; test: MTT assay (72 hours) in 4 cell lines; type: cell-based; details: range over the 4 cell lines tested
Protocol: FIGS. 4A, 4B, 4C, 4D. […] White arrows: small puncta; red arrows: dense puncta. Graphs show mean+/−SEM puncta/cell. (4B) Representative electron micrographs of LN229-GFP-LC3 cells treated (4 hours) with DMSO, HCQ 10 μM, or Lys01 10 μM Arrows: Autophagic vesicles. (4C) LC3 immunoblotting of LN229 cells treated for 24 hours an indicated; calculated ratio of LC3II/LC3I ratios for bafilomycin versus control co-treatment. […] (4D) MTT assay (72 hours) for 4 cell lines. Red: Lys01, Blue: Lys02, Purple: Lys03 Green: Lys04 Orange: HCQ. Values presented are means+/−SEM with 5 replicates per treatment.
The MTT assay was used to assess viable cells at 72 hours.

[2] = system: HCC827; test: Cell death after 24 hours in HCC827 cells; type: cell-based; details: 10 μM
[3] = system: 1205Lu; test: Cell death after 24 hours in 1205Lu cells; type: cell-based; details: 10 μM
[4] = system: LC3II/LC3I ratio in LN229 cells; test: LC3 immunoblotting (LC3II/LC3I ratio) in LN229 cells; type: cell-based, human; details: concentration of 10 μM, 4 hours
Protocol: FIG. 3. Effects of Lys01-Lys04 on LC3 immunoblotting Immunoblotting and quantification of LC3II/LC3I ratio in lysates from LN229 cells treated for 4 hours. The graphs show (mean+/−SD) LC3II/LC3I ratios of each treatment normalized to the LC3II/LC3I ratio of control treated cells for each experiment.
LN229 (human glioblastoma) were treated with Lys01 and derivatives Lys02, Lys03, Lys04, HCQ and CQ. […] LC3 is a ubiquitin-like protein which exists as an unconjugated form (LC3I) or conjugated to AV membranes (LC3II) (25). The ratio of LC3II/LC3I reflects the accumulation of AV in cells, and therefore effective autophagy inhibition.

[5] = system: c8161 cells; test: MTT assay in c8161 cells at 72 hours; type: cell-based; details: Lys01 versus Lys05
Protocol: (§1) FIGS. 5A, 5B. […] (5A) Immunoblotting against LC3 and p62 in c8161 cells treated as indicated (5B) MTT assay in c8161 cells at 72 hours. HCQ: Hydroxychloroquine.
(§2) Lys05, the trihydrochloride salt of Lys01 was synthesized to enhance aqueous solubility and to enable in vivo studies. […] To investigate the safety of Lys05 and its in vivo effects on autophagy, c8161 xenografts matched for tumor size were treated with intraperitoneal (i.p.) daily PBS, or equimolar doses of HCQ or Lys05 (HCQ 60 mg/kg (138 nmoles/g), Lys05 76 mg/kg (138 nmoles/g)) for 48 hours. […] After 48 hours of treatment mice were euthanized, and tumors were processed for electron microscopy (EM).

[6] = system: c8161 cells; test: Immunoblotting against LC3 and p62 in c8161 cells; type: cell-based; details: Lys01 versus Lys05
Protocol: as §1, §2

[7] = system: LN229 GFP-LC3 cells; test: GFP-LC3 puncta imaging in LN229 GFP-LC3 cells; type: cell-based, human; details: for GFP-LC3 punctate fluorescence: within 4 hours
Protocol: Autophagy inhibition and cytotoxicity of Lys01 compared to HCQ (4A) Representative images of LN229 GFP-LC3 cells treated as indicated for 4 hours. White arrows: small puncta; red arrows: dense puncta. Graphs show mean+/−SEM puncta/cell. (4B) Representative electron micrographs of LN229-GFP-LC3 cells treated (4 hours) with DMSO, HCQ 10 μM, or Lys01 10 μM Arrows: Autophagic vesicles. (4C) LC3 immunoblotting of LN229 cells treated for 24 hours an indicated; calculated ratio of LC3II/LC3I ratios for bafilomycin versus control co-treatment. […] Values presented are means+/−SEM with 5 replicates per treatment.
To determine if Lys01 treatment was inducing production of new autophagic vesicles (an autophagy inducer) or blocking the clearance of autophagy vesicles (an autophagy inhibitor), a bafilomycin clamp experiment was performed (FIG. 4C). LN229 GFP-LC3 cells were treated with DMSO, rapamycin, HCQ 10 μM, and Lys01 10 μM, in the absence or presence of bafilomycin.

[8] = system: P. falciparum; test: P. falciparum strains grown in vitro in human RBC (Table 2, FIG. 17); type: cell-based; details: some CQ-resistant cell lines; values only in FIG. 17
Text: FIG. 17, Table 2 provides IC50 (M) values of a number of compounds according to the present invention in P. falciparum.
There is a similar activity profile for anticancer activity of Lys01 derivatives and malaria cytotoxicity.

[9] = system: LN229 (human glioblastoma); test: Cell death of cultured LN229 cells; type: cell-based; details: concentrations of 10 μM or higher, between 4-24 hours

CN(CCNc1ccnc2cc(Cl)ccc12)CCNc1ccnc2cc(Cl)ccc12 [Lys01] was tested, and the pIC50 [1] was 5.10 to 5.40, the cell death [2] was “Near complete cell death” and the cell death [3] was “Near complete cell death”. The “potency as autophagy inhibitor relative to HCQ or CQ (LC3 immunoblotting)” value [4] was greater than 10 fold, the “IC50 values in the MTT assay” value [5] was “identical” and the LC3II/LC3I ratio [6] was “equivalent dose-dependent increases”. For the same molecule, the “autophagy cargo protein p62” value [6] was “accumulation”, the GFP-LC3 punctate fluorescence ([7]; 1 μM) was “numerous small puncta” and the “increase in GFP-LC3 puncta per cell, 10 μM Lys01 compared to 10 μM HCQ” value ([7]; 10 μM, 4 hours) was 5 fold. The GFP-LC3 punctate fluorescence ([7]; 10 μM) was “dense puncta”, the cell death ([7]; 100 μM) was “dead by 4 hours” and the “average number of vesicles per cell” value ([7]; Lys01 10 μM versus 100 μM HCQ) was “higher than in cells treated with 100 μM HCQ”. The “IC50, activity compared to artesunate” value [8] was “more active than artesunate” and the “cell death of cultured cells” value [9] was “Near complete cell death”.

Source: patent publication US11591298B2, “Bisaminoquinoline compounds, pharmaceutical compositions prepared therefrom and their use” (THE TRUSTEES OF THE UNIVERSITY OF PENNSYLVANIA, priority 2011, dated 2023)
